From ChEMBL document CHEMBL1135334, “Design, synthesis and biological evaluation of cyclic angiotensin II analogues with 3,5 side-chain bridges. Role of C-terminal aromatic residue and ring cluster for activity and implications in the drug design of AT1 non-peptide antagonists” (2002)
Bridge positions count the residues as written; N and C are the ends. Square brackets hold non-standard residues; d marks the D form. Peptide text beside a SMILES is read from it. Sar = CNCC(=O)O

Legend:
Format in all cases: functional
[1] = organism: Oryctolagus cuniculus; assay: Compound was tested for dose-related reduction of the mean blood pressure on boluses of different dose of 2 mg via ear vein; value ranges from 0 to -20
[2] = organism: Oryctolagus cuniculus; assay: Compound was tested for dose-related reduction of the mean blood pressure on boluses of different dose of 1 mg via ear vein; value ranges from 0 to -20
[3] = tested on: Oryctolagus cuniculus; assay: Compound was tested for dose-dependent hypertensive response in infused anesthetized rabbits at 1 ug/min
[4] = tested on: Oryctolagus cuniculus; assay: Compound was tested for dose-dependent hypertensive response in infused anesthetized rabbits at 3 ug/min
[5] = tested on: Oryctolagus cuniculus; assay: Compound was tested for dose-dependent hypertensive response in infused anesthetized rabbits at 2 ug/min
[6] = organism: Oryctolagus cuniculus; assay: Compound was tested for dose-related reduction of the mean blood pressure on boluses of different dose of 75 mg via ear vein
[7] = organism: Oryctolagus cuniculus; assay: Compound was tested for dose-related reduction of the mean blood pressure on boluses of different dose of 150 mg via ear vein
[8] = organism: Oryctolagus cuniculus; assay: Compound was tested for dose-related reduction of the mean blood pressure on boluses of different dose of 300 mg via ear vein
[9] = organism: Oryctolagus cuniculus; assay: Compound was tested for dose-related reduction of the mean blood pressure on boluses of different dose of 0.05 mg via ear vein; value ranges from -20 to -40
[10] = organism: Oryctolagus cuniculus; assay: Compound was tested for dose-related reduction of the mean blood pressure on boluses of different dose of 0.1 mg via ear vein
[11] = organism: Oryctolagus cuniculus; assay: Compound was tested for dose-related reduction of the mean blood pressure on boluses of different dose of 0.2 mg via ear vein; value ranges from -40 to -60
[12] = tested on: Oryctolagus cuniculus; assay: Compound was tested for dose-dependent hypertensive response in infused anesthetized rabbits at 10 ug/min
[13] = tested on: Oryctolagus cuniculus; assay: Compound was tested for dose-dependent hypertensive response in infused anesthetized rabbits at 20 ug/min
[14] = tested on: Oryctolagus cuniculus; assay: Compound was tested for dose-dependent hypertensive response in infused anesthetized rabbits at 30 ug/min

OCc1nc2ccccc2n1Cc1ccc(-c2ccccc2C2=NC(Cc3ccccc3)N=N2)cc1 (centres undefined)
Delta mean blood pressure [1]: 0 | Delta mean blood pressure [2]: 0

CC[C@H](C)[C@H](NC(=O)[C@H](Cc1ccc(O)cc1)NC(=O)[C@@H](NC(=O)[C@H](CCCNC(=N)N)NC(=O)[C@@H](N)CC(=O)O)C(C)C)C(=O)N[C@@H](Cc1cnc[nH]1)C(=O)N1CCC[C@H]1C(=O)N[C@@H](Cc1ccccc1)C(=O)O [ANGIOTENSIN II]
Response [3]: 20% | Response [4]: 40% | Response [5]: 20%

CC[C@H](C)[C@H](NC(=O)[C@@H]1CCCN1C(=O)[C@H](Cc1c[nH]cn1)NC(=O)[C@@H]1CCCCNC(=O)CC[C@H](NC(=O)[C@H](CCCN=C(N)N)NC(=O)CNC)C(=O)N[C@@H](Cc2ccc(O)cc2)C(=O)N1)C(=O)O (H-[Sar]REYKHPI-OH; lactam 3-5)
Delta mean blood pressure [6]: 0 | Delta mean blood pressure [7]: 0 | Delta mean blood pressure [8]: -20

CCCCc1nc(Cl)c(CO)n1Cc1ccc(-c2ccccc2-c2nnn[nH]2)cc1 [LOSARTAN]
Delta mean blood pressure [9]: -20 | Delta mean blood pressure [10]: -40 | Delta mean blood pressure [11]: -40

CNCC(=O)N[C@@H](CCCN=C(N)N)C(=O)N[C@H]1CCC(=O)NCCCC[C@@H](C(=O)N[C@@H](Cc2c[nH]cn2)C(=O)N2CCC[C@H]2C(=O)N[C@@H](Cc2ccccc2)C(=O)O)NC(=O)[C@H](Cc2ccc(O)cc2)NC1=O (H-[Sar]REYKHPF-OH; lactam 3-5)
Response [12]: 0% | Response [13]: 40% | Response [14]: 60%
